On the set-up of data set [1]: species or system New Zealand rabbits. Conditions: rabbit, in vivo, po; for haematic levels of Josamycin at the 6th hour: 6 h. The procedure:
The determination of the Josamycin levels was performed both by biological way (Grove, D. C., and Randall, W. A., 1955) and by High Pressure Liquid Chromatography (HPLC).

Data set [2] in a line: in vivo. Further details: species or system Wistar rats of both sexes. Conditions: rat, rats. As for the experimental part: (§1) The acute toxicity of the compound of the invention was determined on mice and rats (Swiss mice of both sexes and Wistar rats of both sexes), after oral and intravenous administration of the compound of the invention. It was expressed as an LD50 value, calculated according to the method of Lichtfield and Wilcoxon. The obtained intravenous values were 418 mg/kg in rats and 386 mg/kg in mice.

The nature of data set [3]: in vivo. Further details: species or system Swiss mice of both sexes. Conditions: mouse, mice. The procedure: as §1
The subject of data set [4] is male Wistar rats. Nature of the data set: Chronic toxicity, 3 months. It is filed as in vivo. Conditions: 250 mg/kg daily oral or 50 mg/kg daily subcutaneous, body weight, haematic crasis, urinary elimination, biochemical parameters, anatomo-pathology. As for the experimental part: Three groups of male Wistar rats (average weight: 155 g) were used in this experiment. A first group received a daily dosage of 250 mg/kg of the compound to be tested by oral route, a second group received a daily amount of 50 mg/kg of the same substance by subcutaneous route, a third group (controls) received nothing. The experiment was carried on for 3 consecutive months.
Since the beginning, as well as during and after the treatment, the animals were constantly monitored with respect to the increase in body weight, the haematic crasis, the urinary elimination and various biochemical parameters. At the end of the treatment, all the animals were sacrificed and subjected to anatomo-pathological investigations.

Data set [5] has as its system pregnant rats. Nature of the data set: Teratological investigation in pregnant rats. It is filed as in vivo. Conditions: 50 mg/kg s.c. or 300 mg/kg p.o. daily, 1st to 15th day of pregnancy.
For data set [6], the system named is pregnant rabbits. In words: Teratological investigation in pregnant rabbits. It is filed as in vivo. Conditions: 50 mg/kg s.c. or 300 mg/kg p.o. daily, 7th to 15th day of pregnancy.
For data set [7], the system named is newborns. In words: Neonatal investigation (growth and survival of the newborns). To be noted: 30 days from birth, versus controls. It is filed as in vivo.
Data set [8] can be described thus: Absorption, haematic and tissue levels (general statement). It is filed as in vivo.
In data set [9] the test system is Josamycin-sensitive bacteria. In words: Antibacterial spectrum in vitro, agar dilution method. It is filed as cell-based. Conditions: versus Josamycin.
Data set [10] deals with Josamycin-sensitive bacteria. In words: Antibacterial spectrum in vivo, infected mice. Conditions: versus Josamycin.
Data set [11] in a line: Solubility in water. It is filed as physicochemical.
Data set [12] is described as follows: Toxicity (general statement).
In data set [13] the test system is Josamycin-sensitive bacteria. Nature of the data set: Antibacterial spectrum (general statement). To be noted: versus Josamycin.
Setting [14] is: oral, could not be determined, no deaths up to 5000 mg/kg, read-out: oral LD50.

Counter-ions that a name gives are not always drawn. Like-named read-outs stand apart in the source and are kept apart here.

As for `CO[C@@H]1[C@@H](O[C@@H]2O[C@H](C)[C@@H](O[C@H]3C[C@@](C)(O)[C@@H](OC(=O)CC(C)C)[C@H](C)O3)[C@H](N(C)C)[C@H]2O)[C@@H](CC=O)C[C@@H](C)[C@@H](O)/C=C/C=C/C[C@@H](C)OC(=O)C[C@H]1OC(C)=O` [Josamycin, reference compound], in [1], the “haematic levels of Josamycin at the 6th hour” value stood at 0.139 µg/mL.

With `CO[C@@H]1[C@@H](O[C@@H]2O[C@H](C)[C@@H](O[C@H]3C[C@@](C)(O)[C@@H](OC(=O)CC(C)C)[C@H](C)O3)[C@H](N(C)C)[C@H]2O)[C@@H](CC=O)C[C@@H](C)[C@@H](O)/C=C/C=C/C[C@@H](C)OC(=O)C[C@H]1OC(C)=O` [salt of formula (I), salt of the macrolide antibiotic Josamycin with (-)-cis-1,2-epoxypropyl phosphonic acid], the LD50 in data set [2] (intravenous, read-out: LD50) was 418 mg/kg; in [2] (setting [14]), more than 5000 mg/kg; in [3] (intravenous, read-out: LD50), 386 mg/kg; in [3] (setting [14]), more than 5000 mg/kg. Besides, in [4], the “alteration of toxic character” value is “did not reveal any alteration of toxic character”. Further, the “alteration of the normal embrional or fetal development” value in [5] and in [6] was “did not cause any alteration of the normal embrional or fetal development” throughout. For the same compound, in data set [7], the “growth and survival of the newborns” value is on record as “comparable with those of the controls”. Moreover, the “duration of haematic levels” value in [1] is recorded as “longer lasting”. Further, the “haematic levels of Josamycin at the 6th hour” value in [1] worked out at 0.297 µg/mL. The absorption result in data set [8] (oral route) is on record as “highly absorbed”. Besides, the “duration of tissue and haematic levels” value in [8] (oral route) is “significantly long lasting”. Besides, the “tissue and haematic levels relative to equivalent amounts of Josamycin” value in data set [8] (oral, versus free base and propionate) is on record as “nearly twice”. Moreover, the “haematic levels of Josamycin relative to equivalent dosages of Josamycin” value in [8] (versus free base and propionate) is “twice”. Also, the antibacterial spectrum entry in data set [9], in data set [10] and in data set [13] was “comparable with that of Josamycin” throughout. In addition, in data set [11], the solubility in water result is “high solubility in water”. For the same compound, the toxicity entry in data set [12] is reported as “very little toxic”.

As a reminder, the LD50 is the dose at which mortality reaches 50%.
